Laboratory results from PubChem BioAssay (NCI).
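In this assay, cells in 96-well plates receive the compound at five concentrations for 48 hours. Endpoints are linearly interpolated between the surrounding concentrations. GI50: concentration for 50% inhibition of growth. TGI is the concentration that stops growth completely.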

Tests used:
Assay in all cases: NCI-60 cell line screen, 48 h
HCC-2998 colon = test system: HCC-2998 colon
SNB-19 CNS = test system: SNB-19 CNS
TK-10 renal = test system: TK-10 renal
LOX IMVI melanoma = test system: LOX IMVI melanoma
A549 NSCLC = test system: A549 NSCLC
MALME-3M melanoma = test system: MALME-3M melanoma
ACHN renal = test system: ACHN renal
EKVX NSCLC = test system: EKVX NSCLC
NCI-H23 lung = test system: NCI-H23 lung
HOP-92 NSCLC = test system: HOP-92 NSCLC
BT-549 breast = test system: BT-549 breast
HT29 colon = test system: HT29 colon
NCI-H522 lung = test system: NCI-H522 lung
DU-145 prostate = test system: DU-145 prostate
OVCAR-5 ovarian = test system: OVCAR-5 ovarian
CAKI-1 renal = test system: CAKI-1 renal
UO-31 renal = test system: UO-31 renal
T-47D breast = test system: T-47D breast
786-0 renal = test system: 786-0 renal
HCT-116 colon = test system: HCT-116 colon
OVCAR-3 ovarian = test system: OVCAR-3 ovarian
UACC-257 melanoma = test system: UACC-257 melanoma
NCI-H226 lung = test system: NCI-H226 lung
OVCAR-4 ovarian = test system: OVCAR-4 ovarian
SK-OV-3 ovarian = test system: SK-OV-3 ovarian
HCT-15 colon = test system: HCT-15 colon
MDA-MB-435 = test system: MDA-MB-435
K-562 leukemia = test system: K-562 leukemia
SW-620 colon = test system: SW-620 colon
MOLT-4 leukemia = test system: MOLT-4 leukemia
PC-3 prostate = test system: PC-3 prostate
HL-60(TB) leukemia = test system: HL-60(TB) leukemia
SK-MEL-5 melanoma = test system: SK-MEL-5 melanoma
RXF 393 renal = test system: RXF 393 renal
U251 CNS = test system: U251 CNS
SNB-75 CNS = test system: SNB-75 CNS
SF-268 CNS = test system: SF-268 CNS
M14 melanoma = test system: M14 melanoma
UACC-62 melanoma = test system: UACC-62 melanoma
KM12 colon = test system: KM12 colon
A498 renal = test system: A498 renal
CCRF-CEM leukemia = test system: CCRF-CEM leukemia
MCF7 breast = test system: MCF7 breast
HOP-62 NSCLC = test system: HOP-62 NSCLC
SF-539 CNS = test system: SF-539 CNS
RPMI-8226 leukemia = test system: RPMI-8226 leukemia
SK-MEL-28 melanoma = test system: SK-MEL-28 melanoma
COLO 205 colon = test system: COLO 205 colon
MDA-MB-231 breast = test system: MDA-MB-231 breast
NCI/ADR-RES ovarian = test system: NCI/ADR-RES ovarian
OVCAR-8 ovarian = test system: OVCAR-8 ovarian
SF-295 CNS = test system: SF-295 CNS
NCI-H460 lung = test system: NCI-H460 lung
HS 578T breast = test system: HS 578T breast
SN12C renal = test system: SN12C renal
IGROV1 ovarian = test system: IGROV1 ovarian

CN1C(=O)C23CC4(C56CC78SSC(CO)(C(=O)N7C5Nc5ccccc56)N(C)C8=O)c5ccccc5NC4N2C(=O)C1(CO)SS3 (configuration not stated)
GI50 (HCC-2998 colon): 46 nM | TGI (HCC-2998 colon): 132 nM | GI50 (SNB-19 CNS): 192 nM | TGI (SNB-19 CNS): 643 nM | GI50 (TK-10 renal): 119 nM | TGI (TK-10 renal): 359 nM | GI50 (LOX IMVI melanoma): 52.1 nM | TGI (LOX IMVI melanoma): 243 nM | GI50 (A549 NSCLC): 48 nM | TGI (A549 NSCLC): 283 nM | GI50 (MALME-3M melanoma): 17.7 nM | TGI (MALME-3M melanoma): 74.5 nM | GI50 (ACHN renal): 71.5 nM | TGI (ACHN renal): 443 nM | GI50 (EKVX NSCLC): 89.2 nM | TGI (EKVX NSCLC): 526 nM | GI50 (NCI-H23 lung): < 31.5 nM | TGI (NCI-H23 lung): 76.4 nM | GI50 (HOP-92 NSCLC): 103 nM | TGI (HOP-92 NSCLC): 461 nM | GI50 (BT-549 breast): 106 nM | TGI (BT-549 breast): 347 nM | GI50 (HT29 colon): 17.6 nM | TGI (HT29 colon): 162 nM | GI50 (NCI-H522 lung): 115 nM | TGI (NCI-H522 lung): 329 nM | GI50 (DU-145 prostate): 29.6 nM | TGI (DU-145 prostate): 195 nM | GI50 (OVCAR-5 ovarian): 81.3 nM | TGI (OVCAR-5 ovarian): 294 nM | GI50 (CAKI-1 renal): 56.1 nM | TGI (CAKI-1 renal): 290 nM | GI50 (UO-31 renal): 111 nM | TGI (UO-31 renal): 342 nM | GI50 (T-47D breast): 21.3 nM | TGI (T-47D breast): 135 nM | GI50 (786-0 renal): 78.6 nM | TGI (786-0 renal): 172 nM | GI50 (HCT-116 colon): 32.9 nM | TGI (HCT-116 colon): 313 nM | GI50 (OVCAR-3 ovarian): 50.7 nM | TGI (OVCAR-3 ovarian): 218 nM | GI50 (UACC-257 melanoma): 37.2 nM | TGI (UACC-257 melanoma): 113 nM | GI50 (NCI-H226 lung): 130 nM | TGI (NCI-H226 lung): 359 nM | GI50 (OVCAR-4 ovarian): 57.6 nM | TGI (OVCAR-4 ovarian): 237 nM | GI50 (SK-OV-3 ovarian): 103 nM | TGI (SK-OV-3 ovarian): 291 nM | GI50 (HCT-15 colon): 35.3 nM | TGI (HCT-15 colon): 411 nM | GI50 (MDA-MB-435): 68.5 nM | TGI (MDA-MB-435): 146 nM | GI50 (K-562 leukemia): 524 nM | TGI (K-562 leukemia): 3640 nM | GI50 (SW-620 colon): 37.2 nM | TGI (SW-620 colon): 167 nM | GI50 (MOLT-4 leukemia): 34.3 nM | TGI (MOLT-4 leukemia): 3500 nM | GI50 (PC-3 prostate): 38.8 nM | TGI (PC-3 prostate): 537 nM | GI50 (HL-60(TB) leukemia): 85.3 nM | TGI (HL-60(TB) leukemia): 50000 nM | GI50 (SK-MEL-5 melanoma): 39.3 nM | TGI (SK-MEL-5 melanoma): 112 nM | GI50 (RXF 393 renal): 12.9 nM | TGI (RXF 393 renal): 42 nM | GI50 (U251 CNS): 46.4 nM | TGI (U251 CNS): 193 nM | GI50 (SNB-75 CNS): 99.3 nM | TGI (SNB-75 CNS): 289 nM | GI50 (SF-268 CNS): 80.7 nM | TGI (SF-268 CNS): 351 nM | GI50 (M14 melanoma): 71.7 nM | TGI (M14 melanoma): 205 nM | GI50 (UACC-62 melanoma): 62.2 nM | TGI (UACC-62 melanoma): 153 nM | GI50 (KM12 colon): 54.4 nM | TGI (KM12 colon): 220 nM | GI50 (A498 renal): 74.8 nM | TGI (A498 renal): 155 nM | GI50 (CCRF-CEM leukemia): 21.9 nM | TGI (CCRF-CEM leukemia): 3040 nM | GI50 (MCF7 breast): 14.5 nM | TGI (MCF7 breast): 122 nM | GI50 (HOP-62 NSCLC): 124 nM | TGI (HOP-62 NSCLC): 368 nM | GI50 (SF-539 CNS): 29.1 nM | TGI (SF-539 CNS): 64.9 nM | GI50 (RPMI-8226 leukemia): 56.3 nM | TGI (RPMI-8226 leukemia): 3160 nM | GI50 (SK-MEL-28 melanoma): 23.5 nM | TGI (SK-MEL-28 melanoma): 69.5 nM | GI50 (COLO 205 colon): 19.5 nM | TGI (COLO 205 colon): 76 nM | GI50 (MDA-MB-231 breast): 130 nM | TGI (MDA-MB-231 breast): 653 nM | GI50 (NCI/ADR-RES ovarian): 48.2 nM | TGI (NCI/ADR-RES ovarian): 189 nM | GI50 (OVCAR-8 ovarian): 23 nM | TGI (OVCAR-8 ovarian): 185 nM | GI50 (SF-295 CNS): 49.7 nM | TGI (SF-295 CNS): 135 nM | GI50 (NCI-H460 lung): 52.3 nM | TGI (NCI-H460 lung): 191 nM | GI50 (HS 578T breast): 52.9 nM | TGI (HS 578T breast): 191 nM | GI50 (SN12C renal): 124 nM | TGI (SN12C renal): 673 nM | GI50 (IGROV1 ovarian): 98.7 nM | TGI (IGROV1 ovarian): 279 nM
